Tests used:
[1] = target: T1, human BTK (Homo sapiens, UniProt Q06187); test: In vitro BTK kinase activity, 33P isotope-labeled kinase assay; type: biochemical
T1 construct: purchased Reaction Biology Corp
Experimental: The IC50 values were determined using ^33P isotope-labeled kinase activity assay (Reaction Biology Corp) to evaluate the inhibitory ability of the tested compounds on human BTK.
Buffer conditions: 20 mM Hepes (pH 7.5), 10 mM MgCl2, 1 mM EGTA, 0.02% Brij35, 0.02 mg/mL BSA, 0.1 mM Na3VO4, 2 mM DTT, 1% DMSO.
Test procedure: At room temperature, the tested compound was dissolved in DMSO and a 10 mM solution was prepared for use. The substrate was dissolved in a newly prepared buffer solution, and the BTK kinase was added thereto and mixed evenly. The compound dissolved in DMSO was added to the kinase reaction mixture through Echo 550 (Acoustic technology; Nanoliter range). After incubation for 20 minutes at room temperature, ^33P-ATP was added to initiate the reaction. The reaction was carried out at room temperature for 2 hours, and the radioactivity of the reaction solution drop was detected by filtration-binding method with P81 ion exchange filter paper. The kinase activity data were expressed by comparing the kinase activity of the group containing the tested compound with the kinase activity of the blank group (only containing DMSO), and the IC50 value was obtained by curve fitting by Prism4 software (GraphPad), the experimental results were shown in Table 3.

[2] = system: TNF-α production in THP-1 cells; test: TNF-α ELISA in LPS-stimulated THP-1 cells; type: cell-based; conditions: Homo sapiens, TNF-α in supernatant, 150 ng/mL LPS, 18 hours
Experimental: THP-1 human acute single cell leukemia cells were purchased from ATCC (Cat #TIB-202) and cultured at 37° C. in 5% CO2 incubator. The composition of medium was RPMI1640 (Gibco, Cat #22400-105), and the supplementary compositions were 10% FBS (Gibco, Cat #10091148); 1% PenStrep (Gibco, Cat #15140); 0.05 mM β-mercaptoethanol (Sigma, Cat #M6250).
TNF-α Elisa kit was used to detect the content of TNF-α in cell culture supernatant samples. TNF-α was produced by stimulating THP-1 cells with 150 ng/mL LPS (Sigma, Cat #L6529).
THP-1 cells cultured normally at logarithmic growth period were seeded in a 96-well plate (Corning #3599) at a certain concentration (1*10^5/100 μL) and then put into a cell incubator for incubation. After two hours, 16.7 μL of different concentrations of the compound to be tested (8*final concentration) were added and incubated in an incubator. After one hour, 16.7 μL of 1200 ng/mL LPS was added and incubated in an incubator. After 18 hours, the culture supernatant samples were collected by centrifugation, and the content of TNF-α could be detected by TNF-α Elisa kit. Finally, OD signals (OD450-OD570) were read on envision board reader.
The OD450-OD570 signal value was converted into a percentage inhibition rate.
Inhibition rate %=(ZPE−sample)/(ZPE−HPE)*100.
“HPE” referred to the OD450-OD570 signal value of the control well without LPS stimulated cells, and “ZPE” referred to the OD450-OD570 signal value of the control well with LPS stimulated cells. The IC50 value of the compound was calculated by XLFit in the excel add-in.
Y=Bottom+(Top−Bottom)/(1+(IC50/X)^HillSlope). Equation: […]

[3] = system: OCI-LY10 human diffuse large B lymphoma cells; test: OCI-LY10 cell proliferation (Cell Titer Glo); type: cell-based; conditions: 72 hours
Experimental: (§1) The tumor cell lines OCI-LY10 and TMD-8 were used to detect the effect of the compound of the disclosure on inhibiting tumor cell proliferation in vitro.
OCI-LY10 human diffuse large B lymphoma cells, from Nanjing Cobioer Biotechnology Co., Ltd
(§2) The compound was diluted with DMSO to a final concentration of 10 mM. The compound was freshly prepared and ready for use.
(§3) a) Logarithmic growth period cells were collected, counted, resuspended with complete culture medium, the cell concentration was adjusted to an appropriate concentration (determined according to the results of cell density optimization test), inoculated on 96-well plates, and 100 μL of cell suspension was added to each well. Cells were incubated in an incubator with 37° C., 100% relative humidity and 5% CO2 for 24 hours.
(§4) b) The compound to be tested was diluted to 50 μM with culture medium and then gradient diluted for 8 times. Cells were added with 25 μL/well. The final concentrations of the compound were from […], 3-fold gradient dilution, with a total of 9 concentration points.
(§5) c) Cells were incubated in an incubator with 37° C., 100% relative humidity and 5% CO2 for 72 hours;
(§6) d) 60 μL of CTG test reagent was added to the culture medium.
(§7) e) Shaked fully and reacted in the dark for 10 min. Luminescence was measured on ENVISION and the inhibition rate was calculated.
(§8) Cell growth inhibition rate %=[(RLUv−RLUs)/(RLUv−RLUb)]×100%

[4] = system: TMD-8 human diffuse large B lymphoma cells; test: TMD-8 cell proliferation (Cell Titer Glo); type: cell-based; conditions: TMD8, 72 hours
Experimental: as §1
TMD-8 human diffuse large B lymphoma cells, from Nanjing Cobioer Biotechnology Co., Ltd
as §2, §3, §4, §5, §6, §7, §8

[5] = Pharmacokinetic study of mice; type: in vivo; conditions: mouse, plasma, CD-1 male mice; for Vd / AUC(0-t) / clearance / half-life: IV 3 mg/kg; for Vd: read-out: Apparent volume of distribution Vdss; for AUC(0-t): read-out: Area under the plasma concentration-time curve AUC0-24h; for clearance: read-out: Clearance rate CL; for half-life: read-out: Half-life T1/2 (converted); for bioavailability / AUC / Cmax / Tmax: PO 10 mg/kg; for AUC: read-out: Area under the plasma concentration-time curve AUC; for Cmax: read-out: Peak concentration Cmax; for Tmax: read-out: Peak time Tmax
Experimental: The purpose of this experiment was to study the pharmacokinetics of the test compound in the plasma of CD-1 male mice after intravenous injection and oral administration.
Intravenous injection group: the tested compound was weighed and dissolved with 5% DMSO/10% Solutol/85% H2O, and the pH was adjusted to 4-5 with 6M hydrochloric acid, and a clear solution of 1.5 mg/mL was prepared by vortex, which was filtered by 0.22 m microporous membrane for later use. CD-1 male mice from 6 to 10 weeks old were selected and the test compound solution was injected intravenously at a dose of 3 mg/kg. The sample collection time was: 0.083, 0.25, 0.5, 1, 2, 4, 6, 8, 24 hours.
Oral administration group: the tested compound was weighed and dissolved with 5% DMSO/10% Solutol/85% H2O, the pH was adjusted to 3-4 with 6M hydrochloric acid, and a clear solution of 2.0 mg/mL was prepared by vortex for later use. CD-1 male mice from 6 to 10 weeks old were selected and the test compound was administered orally at a dose of 10 mg/kg. The sample collection time was: 0.25, 0.5, 1, 2, 4, 6, 8, 10, 24 hours.
Approximately 50 μL of whole blood was collected through the jugular vein at each time point for plasma preparation for concentration determination by high performance liquid chromatography-tandem mass spectrometry (LC-MS/MS). All animals were euthanized by CO2 anesthesia after collecting PK samples at the last time point. The non-atrioventricular model of WinnonLin™ Version 6.3 (Pharsight, Mountain View, CA) pharmacokinetic software was used to process the plasma concentration, and the pharmacokinetic parameters were calculated by linear logarithmic trapezoid method.

T1 sequence (Q06187 whole entry): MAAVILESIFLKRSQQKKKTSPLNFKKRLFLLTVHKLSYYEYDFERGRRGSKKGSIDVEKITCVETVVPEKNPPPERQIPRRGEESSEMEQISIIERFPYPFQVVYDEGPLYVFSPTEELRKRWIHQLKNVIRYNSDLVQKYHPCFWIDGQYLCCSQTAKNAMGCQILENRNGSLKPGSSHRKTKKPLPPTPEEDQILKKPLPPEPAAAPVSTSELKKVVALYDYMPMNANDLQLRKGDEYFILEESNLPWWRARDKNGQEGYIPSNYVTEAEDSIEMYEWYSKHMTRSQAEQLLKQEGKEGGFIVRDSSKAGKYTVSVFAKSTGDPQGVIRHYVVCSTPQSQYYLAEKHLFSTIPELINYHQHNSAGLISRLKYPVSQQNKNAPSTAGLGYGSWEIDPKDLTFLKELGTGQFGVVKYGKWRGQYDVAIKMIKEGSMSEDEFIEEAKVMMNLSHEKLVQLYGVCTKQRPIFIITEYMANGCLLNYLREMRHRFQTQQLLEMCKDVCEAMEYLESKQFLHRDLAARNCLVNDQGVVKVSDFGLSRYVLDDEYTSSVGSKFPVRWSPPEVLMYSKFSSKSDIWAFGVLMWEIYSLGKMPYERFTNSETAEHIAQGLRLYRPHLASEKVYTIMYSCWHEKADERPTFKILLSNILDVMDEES

| IC50 [1] [nM] | IC50 [2] [nM] | IC50 [3] [nM] | IC50 [4] [nM] | Vd [5] [L/kg] | AUC(0-t) [5] [µM·h] | clearance [5] [mL/min/kg] | half-life [5] [h] | bioavailability [5] [%] | AUC [5] [µM·h] | Cmax [5] [µM] | Tmax [5] [h] | Structure (SMILES) |
| --- | --- | --- | --- | --- | --- | --- | --- | --- | --- | --- | --- | --- |
| 20.1 | 60 | 48 | 37 | 1.5 | 17.9 | 5.9 | 8.1 | 78 | 48 | 17.8 | 0.5 | Cc1cc(-c2nc(C(=O)Nc3cn4cc(C(C)(C)O)nc4cc3-c3ccccc3)co2)ccn1 [WX009] |
| 5.2 | 15.9 | 7 | 10 | 0.5 | 7.67 | 15.1 | 2.3 | 41 | 10.4 | 6.52 | 0.8 | CC(C)(O)c1cn2cc(NC(=O)c3coc(-c4ccnc(N)c4)n3)c(-c3ccccc3)cc2n1 [WX017] |
| 2.9 | 41.9 | 26 | 32.2 | 0.8 | 3.77 | 28.2 | 1.9 | 64 | 8.08 | 4.93 | 0.3 | CC(C)(O)c1cn2cc(NC(=O)c3coc(-c4ccnc(N)c4F)n3)c(-c3ccccc3)cc2n1 [WX027] |
